Measured values: US20230220001A1, “METHOD FOR SYNTHESIS OF THIOETHER-[…]” ([…] RESEARCH GMBH, priority 2020, published 2023)
Starred links: 1 amine or outer side, 2 acyl side, 3 side chain; linkers in the order of their positions; H or OH if unused. Positions of bridges follow the written chain, without caps; N, C: chain ends. Non-standard residues stand in square brackets, D forms with d. Residues, ends and D or L forms follow the SMILES beside them. Trp(2-yl) = O=C([C@H](Cc1c([*:3])[nH]c2ccccc12)N[*:1])[*:2]; Ile(4R-OH,5-OH) = C[C@H]([C@H](N)C(=O)O)[C@@H](O)CO; Pro(4,4-F2) = O=C(O)[C@@H]1CC(F)(F)CN1; Hyp = O=C(O)[C@@H]1C[C@@H](O)CN1; Tle = CC(C)(C)[C@H](N)C(=O)O; Aze = O=C(O)[C@@H]1CCN1; Ac3c = NC1(C(=O)O)CC1; Aib = CC(C)(N)C(=O)O; Sar = CNCC(=O)O

Key:
RNA Polymerase II = target: T1, RNA Polymerase II (Homo sapiens, UniProt P24928); experiment: RNA Polymerase II assay (HeLaScribe nuclear extract in vitro transcription system, RT-PCR quantification of mRNA); assay type: biochemical; conditions: for residual RNAP II activity at highest concentration tested: highest concentration tested (range up to 1×10^−6 M)
T1 construct: HeLaScribe® Nuclear extract in vitro transcription system (Promega, #E3092); host or cells: HeLa nuclear extract (purchased)
Description: (§1) Cytotoxicity of compounds of the invention was assessed using an RNA Polymerase II inhibition assay and by assessing cytotoxicity in a cell viability assay on HEK cells and HEK-OATP1 B3 cells, the results of which are depicted in Table 6.
The in vitro RNA Pol II assay was done using a HeLaScribe® Nuclear extract in vitro transcription system (Promega, #E3092) was used to compare the inhibitory effect of amanitin analogues on RNA Pol at seven concentrations from 6.4×10^−11 M to 1×10^−6 M (serial 1:5 dilutions). As positive control, template run-off transcripts from a CMV immediate early promoter were used (Promega, #E3092). Reverse transcription was followed by real time-PCR for the quantification of the mRNA product. RNA detection was performed using a QuantiFast Probe RT-PCR Plus Kit (Qiagen). The PCR product was monitored by determination of fluorescence on a Real Time PCR CFX Connect Real Time System (Bio-Rad Laboratories Inc.). α-amanitin, analogues and untreated control were each analyzed in triplicates. Negative control, positive control and no target control were analyzed in duplicates. The ACT method was used to calculate the inhibitory effect of the test item on transcription normalized to the untreated control.

[1] = Cell viability assay (BrdU incorporation) on HEK293 cells; assay type: cell-based; conditions: human, wildtype HEK293 cells, 96 h drug exposure, read-out: Cytotoxicity on HEK-293 cells EC50
Description: as §1
(§2) Cell Viability Assay (HEK and HEK-OATP1B3 Cells)
(§3) The in vitro toxicity of the inventive compounds was determined in Human embryonic kidney HEK293 cells and in HEK293-OATP1B3 cells that overexpress the organic anion-transporting polypeptide […] (OATP1B3) to assess whether OATP1 B3 mediates active transport of amanitin analogues into the cell. Wildtype HEK293 (ATCC, Manassas, Va.) and HEK293-OATP1 B3 cells (see: Pahl et al., Cytotoxic Payloads for Antibody-Drug Conjugates In: Amatoxins as RNA Polymerase II Inhibiting Antibody-Drug Conjugate (ADC) Payloads CHAPTER 19, The Royal Society of Chemistry 2019, ISBN: 978-1-78801-077-1, or e.g. Bowman et al. Drug Metab Dispos 48:18-24, January 2020) were incubated with compound 7f (α-amanitin) or the compounds as disclosed in Table 6. Cytotoxicity was determined by a BrdU assay. HEK293 and HEK-OATP1B3 cells were plated at 2.5×10^3 cells/well in a 1:1 mixture of Ham's F12 with DMEM containing 10% charcoal-stripped FCS onto poly-D-lysine-coated 96-well plates and grown for 24 hours. Subsequently, cells were incubated with amanitin derivatives at 8 different concentrations (1×10^−6 M to 1.28×10^−11 M, serial 1:5 dilutions). Following 96 h of drug exposure, cell viability was determined by a BrdU incorporation assay (Cell Proliferation ELISA, BrdU, Roche) and chemiluminescence was measured using a FLUOstar Optima plate reader (BMG LABtech). Data analysis was performed with GraphPad Prism 9.0 (GraphPad Software, Inc., La Jolla, Calif.) software to plot curve fits.

OATP1B3 = experiment: Cell viability assay (BrdU incorporation) on HEK293-OATP1B3 cells overexpressing OATP1B3; assay type: cell-based; conditions: human, HEK293-OATP1B3 cells (overexpress OATP1B3), 96 h drug exposure, read-out: Cytotoxicity on HEK-OATP1B3 cells EC50
Description: as §1, §2, §3

[2] = slow acting toxin; T. Wieland 1986; cited from earlier work

SMILES	IC50 (RNA Polymerase II)	EC50 at 96 h [1]	EC50 at 96 h (OATP1B3)	LD50 [2]	residual RNAP II activity at highest concentration tested (RNA Polymerase II)
CC[C@H](C)[C@@H]1NC(=O)CNC(=O)[C@@H]2Cc3c([nH]c4ccccc34)SC[C@H](NC(=O)CNC1=O)C(=O)N[C@@H](CC(N)=O)C(=O)N1C[C@H](O)C[C@H]1C(=O)N[C@@H]([C@@H](C)[C@@H](O)CO)C(=O)N2 [Compound 7d] (cyclo(CN[Hyp][Ile(4R-OH,5-OH)][Trp(2-yl)]GIG); thioether 1-5)	6.8 nM	81 nM	0.23 nM	–	–
CC[C@H](C)[C@@H]1NC(=O)CNC(=O)[C@@H]2Cc3c([nH]c4cc(O)ccc34)[S@+]([O-])C[C@H](NC(=O)CNC1=O)C(=O)N[C@@H](CC(N)=O)C(=O)N1C[C@H](O)C[C@H]1C(=O)N[C@@H]([C@@H](C)[C@@H](O)CO)C(=O)N2 [Compound 7f, Alpha-amanitin, reference compound]	2.7 nM	210 nM	5.2 nM	0.05 to 0.1 mg/kg	–
CC[C@H](C)[C@@H]1NC(=O)CNC(=O)[C@@H]2Cc3c([nH]c4ccccc34)SC[C@H](NC(=O)[C@H]3CCCN3C1=O)C(=O)N[C@@H](CC(N)=O)C(=O)N1C[C@H](O)C[C@H]1C(=O)N[C@@H]([C@@H](C)[C@@H](O)CO)C(=O)N2 [Compound 7i] (cyclo(CN[Hyp][Ile(4R-OH,5-OH)][Trp(2-yl)]GI[dP]); thioether 1-5)	12 nM	> 1000 nM	210 nM	–	20%
CC[C@H](C)[C@@H]1NC(=O)CNC(=O)[C@@H]2Cc3c([nH]c4ccccc34)SC[C@H](NC(=O)CN(C)C1=O)C(=O)N[C@@H](CC(N)=O)C(=O)N1C[C@H](O)C[C@H]1C(=O)N[C@@H]([C@@H](C)[C@@H](O)CO)C(=O)N2 [Compound 7l] (cyclo(CN[Hyp][Ile(4R-OH,5-OH)][Trp(2-yl)]GI[Sar]); thioether 1-5)	15 nM	> 1000 nM	29 nM	–	10%
CC[C@H](C)[C@@H]1NC(=O)CNC(=O)[C@@H]2Cc3c([nH]c4ccccc34)SC[C@H](NC(=O)C(C)(C)NC1=O)C(=O)N[C@@H](CC(N)=O)C(=O)N1C[C@H](O)C[C@H]1C(=O)N[C@@H]([C@@H](C)[C@@H](O)CO)C(=O)N2 [Compound 7m] (cyclo([Aib]CN[Hyp][Ile(4R-OH,5-OH)][Trp(2-yl)]GI); thioether 2-6)	71 nM	> 1000 nM	120 nM	–	15%
CC[C@H](C)[C@@H]1NC(=O)CNC(=O)[C@@H]2Cc3c([nH]c4ccccc34)SC[C@H](NC(=O)CNC1=O)C(=O)N[C@@H](CC(N)=O)C(=O)N1CC[C@H]1C(=O)N[C@@H]([C@@H](C)[C@@H](O)CO)C(=O)N2 [Compound 7n] (cyclo([Aze][Ile(4R-OH,5-OH)][Trp(2-yl)]GIGCN); thioether 3-7)	160 nM	> 1000 nM	> 100 nM	–	40%
CC[C@H](C)[C@@H]1NC(=O)CNC(=O)[C@@H]2Cc3c([nH]c4ccccc34)SC[C@H](NC(=O)[C@@H](C)NC1=O)C(=O)N[C@@H](CC(N)=O)C(=O)N1C[C@H](O)C[C@H]1C(=O)N[C@@H]([C@@H](C)[C@@H](O)CO)C(=O)N2 [Compound 7o] (cyclo(CN[Hyp][Ile(4R-OH,5-OH)][Trp(2-yl)]GI[dA]); thioether 1-5)	1.4 nM	> 1000 nM	28 nM	–	–
C[C@H]([C@@H]1NC(=O)[C@@H]2C[C@@H](O)CN2C(=O)[C@H](CC(N)=O)NC(=O)[C@@H]2CSc3[nH]c4ccccc4c3C[C@H](NC1=O)C(=O)NCC(=O)N[C@@H](C(C)(C)C)C(=O)NCC(=O)N2)[C@@H](O)CO [Compound 7p] (cyclo(CN[Hyp][Ile(4R-OH,5-OH)][Trp(2-yl)]G[Tle]G); thioether 1-5)	25 nM	> 1000 nM	16 nM	–	–
CC[C@H](C)[C@@H]1NC(=O)CNC(=O)[C@@H]2Cc3c([nH]c4ccccc34)SC[C@H](NC(=O)CNC1=O)C(=O)N[C@@H](CC(N)=O)C(=O)N1CC(F)(F)C[C@H]1C(=O)N[C@@H]([C@@H](C)[C@@H](O)CO)C(=O)N2 [Compound 7q] (cyclo(CN[Pro(4,4-F2)][Ile(4R-OH,5-OH)][Trp(2-yl)]GIG); thioether 1-5)	110 nM	> 1000 nM	49 nM	–	10%
CC[C@H](C)[C@@H]1NC(=O)CNC(=O)[C@@H]2Cc3c([nH]c4ccccc34)SC[C@H](NC(=O)C3(CC3)NC1=O)C(=O)N[C@@H](CC(N)=O)C(=O)N1C[C@H](O)C[C@H]1C(=O)N[C@@H]([C@@H](C)[C@@H](O)CO)C(=O)N2 [Compound 7r] (cyclo([Ac3c]CN[Hyp][Ile(4R-OH,5-OH)][Trp(2-yl)]GI); thioether 2-6)	26 nM	> 1000 nM	10 nM	–	–
